Test results taken from ChEMBL document CHEMBL1149625, “Rational design of 6-(2,4-diaminopyrimidinyl)-1,4-benzoxazin-3-ones as small molecule renin inhibitors” (Bioorg Med Chem, 2007).
≈ marks a conversion by molar mass, not a printed value.

Legend:
in vivo [1] = details: rat, iv, 1 mg/kg
physchem = details: aqueous, pH 6.5, Solubility
[2] = Volume of distribution at steady state in rat at 1 mg/kg, iv or 5 mg/kg, po; format: ADME, organism-based; details: in vivo, read-out: Vdss
in vivo [3] = details: rat, po, 10 mg/kg
in vivo [4] = details: rat, po, 10 mg/kg; remark: listed apart in the source
[5] = Bioavailability in dog at 5 mg/kg, po; format: ADME, organism-based, Canis lupus familiaris; details: in vivo
[6] = Volume of distribution at steady state in rat at […], iv or […], po; format: ADME, organism-based; details: in vivo, read-out: Vdss
[7] = Cmax in rat at […], iv or […], po; format: ADME, organism-based; details: in vivo
[8] = Bioavailability in rat at […], po; format: ADME, organism-based; details: in vivo
[9] = Cmax in rat at 1 mg/kg, iv or 5 mg/kg, po; format: ADME, organism-based; details: in vivo
[10] = Bioavailability in rat at 5 mg/kg, po; format: ADME, organism-based; details: in vivo
[11] = buffer, pH 6.5

CCc1nc(N)nc(N)c1-c1ccc2c(c1)N(CCO)C(=O)C(C)(c1cc(F)cc(F)c1)O2 (stereo not given)
Vd (in vivo [1]): 3.3 L/kg | solubility (physchem): 89 µg/mL (≈ 195 µM)

CCc1nc(N)nc(N)c1-c1ccc2c(c1)N(CCNC(C)=O)C(=O)[C@@](C)(c1ccccc1)O2
solubility (physchem): 40 µg/mL (≈ 86.9 µM)

CCc1nc(N)nc(N)c1-c1ccc2c(c1)N(CCCOC)C(=O)C(CC)(CC)O2
solubility (physchem): 16 µg/mL (≈ 38.7 µM)

CCc1nc(N)nc(N)c1-c1ccc2c(c1)N(CCNC(=O)CO)C(=O)C(C)(c1cc(F)cc(F)c1)O2 (stereo not given)
Vd [2]: 2.9 L/kg | solubility (physchem): 59 µg/mL (≈ 115 µM)

CCc1nc(N)nc(N)c1-c1ccc2c(c1)N(CCCOC)C(=O)C(C)(CC)O2 (stereo not given)
solubility (physchem): 54 µg/mL (≈ 135 µM)

CCc1nc(N)nc(N)c1-c1ccc2c(c1)N(CCC(=O)NC)C(=O)C(C)(c1cc(F)cc(F)c1)O2 (stereo not given)
Vd [2]: 2.1 L/kg | solubility (physchem): 133 µg/mL (≈ 268 µM)

CCc1nc(N)nc(N)c1-c1ccc2c(c1)N(CCNS(C)(=O)=O)C(=O)C(C)(c1cc(F)cc(F)c1)O2 (stereo not given)
solubility (physchem): 200 µg/mL (≈ 376 µM)

CCc1nc(N)nc(N)c1-c1ccc2c(c1)N(CCNC(=O)OC)C(=O)C(C)(c1cc(F)cc(F)c1)O2 (stereo not given)
Vd (in vivo [1]): 3.5 L/kg | Cmax (in vivo [3]): 280 ng/mL | bioavailability (in vivo [4]): 34%

CCc1nc(N)nc(N)c1-c1ccc2c(c1)N(CCCOC(F)(F)F)C(=O)C(C)(c1cc(F)cc(F)c1)O2 (stereo not given)
Vd (in vivo [1]): 6.3 L/kg | Cmax (in vivo [3]): 200 ng/mL | bioavailability (in vivo [4]): 28% | solubility (physchem): 7.8 µg/mL (≈ 14.5 µM)

CCc1nc(N)nc(N)c1-c1ccc2c(c1)N(CCCC(F)(F)F)C(=O)[C@](C)(c1cc(F)cc(F)c1)O2
bioavailability [5]: 19% | Vd (in vivo [1]): 5.7 L/kg | Cmax (in vivo [3]): 380 ng/mL | bioavailability (in vivo [4]): 74%

CCc1nc(N)nc(N)c1-c1ccc2c(c1)N(CCNC(C)=O)C(=O)[C@](C)(c1ccccc1)O2
solubility (physchem): 119 µg/mL (≈ 258 µM)

CCOCCCN1C(=O)C(C)(c2cc(F)cc(F)c2)Oc2ccc(-c3c(N)nc(N)nc3CC)cc21 (stereo not given)
Vd [6]: 2 L/kg | Cmax [7]: < 5 ng/mL | bioavailability [8]: 0% | solubility (physchem): 59 µg/mL (≈ 119 µM)

CCc1nc(N)nc(N)c1-c1ccc2c(c1)N(CCCO)C(=O)C(C)(c1cc(F)cc(F)c1)O2 (stereo not given)
Vd [2]: 3.1 L/kg | Cmax [9]: 180 ng/mL | bioavailability [10]: 44% | solubility (physchem): 28 µg/mL (≈ 59.6 µM)

CCc1nc(N)nc(N)c1-c1ccc2c(c1)N(CCNC(C)=O)C(=O)C(C)(C(F)(F)F)O2 (stereo not given)
solubility (physchem): 200 µg/mL (≈ 442 µM)

CCc1nc(N)nc(N)c1-c1ccc2c(c1)N(CCNC(C)=O)C(=O)C1(CC1)O2
solubility (physchem): 24 µg/mL (≈ 60.5 µM)

CCNC(=O)CN1C(=O)C(C)(c2cc(F)cc(F)c2)Oc2ccc(-c3c(N)nc(N)nc3CC)cc21 (stereo not given)
Vd [6]: 3.1 L/kg | Cmax [7]: 60 ng/mL | bioavailability [8]: 14% | solubility (physchem): 89 µg/mL (≈ 179 µM)

CCc1nc(N)nc(N)c1-c1ccc2c(c1)N(CCCOC)C(=O)C(C)(C)O2
solubility (physchem): 34 µg/mL (≈ 88.2 µM)

CCc1nc(N)nc(N)c1-c1ccc2c(c1)N(CCCCO)C(=O)C(C)(c1cc(F)cc(F)c1)O2 (stereo not given)
Vd (in vivo [1]): 2.3 L/kg | Cmax (in vivo [3]): 186 ng/mL | bioavailability (in vivo [4]): 7% | solubility (physchem): 59 µg/mL (≈ 122 µM)

CCc1nc(N)nc(N)c1-c1ccc2c(c1)N(CCCC#N)C(=O)C(C)(c1cc(F)cc(F)c1)O2 (stereo not given)
Vd (in vivo [1]): 1.9 L/kg | Cmax (in vivo [3]): 237 ng/mL | bioavailability (in vivo [4]): 12% | solubility (physchem): 3.5 µg/mL (≈ 7.31 µM)

CCc1nc(N)nc(N)c1-c1ccc2c(c1)N(CCCOC)C(=O)C(C)(c1ccc(F)c(F)c1)O2 (racemic)
solubility (physchem): 13 µg/mL (≈ 26.9 µM)

CCc1nc(N)nc(N)c1-c1ccc2c(c1)N(CCNC(C)=O)C(=O)C(C)(c1ccc(Cl)cc1)O2 (racemic)
solubility (physchem): 12 µg/mL (≈ 24.2 µM)

CCc1nc(N)nc(N)c1-c1ccc2c(c1)N(CCNC(C)=O)C(=O)C(C)(c1cc(F)ccc1F)O2 (racemic)
solubility (physchem): 2.3 µg/mL (≈ 4.63 µM)

CCc1nc(N)nc(N)c1-c1ccc2c(c1)N(CCCOC)C(=O)C(C)(c1cc(F)cc(F)c1)O2 (racemic)
Vd [2]: 4.5 L/kg | Cmax [9]: 23 ng/mL | bioavailability [10]: 0.4% | solubility [11]: 87 µg/mL (≈ 180 µM)

CCc1nc(N)nc(N)c1-c1ccc2c(c1)N(CCCOC)C(=O)C(CC)(c1cc(F)cc(F)c1)O2 (racemic)
solubility (physchem): 2.6 µg/mL (≈ 5.23 µM)

CCc1nc(N)nc(N)c1-c1ccc2c(c1)N(CCCC(F)(F)F)C(=O)C(C)(c1cc(F)cc(F)c1)O2 (racemic)
Vd (in vivo [1]): 5.1 L/kg | Cmax (in vivo [3]): 160 ng/mL | bioavailability (in vivo [4]): 12% | solubility (physchem): 5.2 µg/mL (≈ 9.97 µM)

CCc1nc(N)nc(N)c1-c1ccc2c(c1)N(CCNC(C)=O)C(=O)C(C)(c1cccc(C(F)(F)F)c1)O2 (racemic)
solubility (physchem): 12 µg/mL (≈ 22.7 µM)

CCc1nc(N)nc(N)c1-c1ccc2c(c1)N(CCNC(C)=O)C(=O)C(C)(c1cccc(Cl)c1)O2 (racemic)
solubility (physchem): 133 µg/mL (≈ 269 µM)

CCc1nc(N)nc(N)c1-c1ccc2c(c1)N(CCNC(C)=O)C(=O)C(C)(c1cc(F)cc(F)c1)O2 (racemic)
solubility [11]: 133 µg/mL (≈ 268 µM)

CCc1nc(N)nc(N)c1-c1ccc2c(c1)N(CCCOC)C(=O)C(C)(c1cc(F)cc(F)c1)O2 (stereo in doubt; 25)
solubility (physchem): 87 µg/mL (≈ 180 µM)

CCc1nc(N)nc(N)c1-c1ccc2c(c1)N(CCNC(C)=O)C(=O)C(C)(c1cc(F)cc(F)c1)O2 (stereo in doubt; 26)
Vd [2]: 2.1 L/kg | Cmax [9]: 220 ng/mL | bioavailability [10]: 8% | solubility (physchem): 95 µg/mL (≈ 191 µM)
